# Key:
# Experiment in all cases: Eurofins kinase panel
# Assay type in all cases: biochemical
# Conditions in all cases: read-out: Inhibition rate (%)
# Haspin(h) = molecular target: T1, Haspin(h) (Homo sapiens, UniProt Q8TF76)
# T1 construct: purchased Eurofins (KinaseProfiler)
# T1 sequence (Q8TF76 1-798): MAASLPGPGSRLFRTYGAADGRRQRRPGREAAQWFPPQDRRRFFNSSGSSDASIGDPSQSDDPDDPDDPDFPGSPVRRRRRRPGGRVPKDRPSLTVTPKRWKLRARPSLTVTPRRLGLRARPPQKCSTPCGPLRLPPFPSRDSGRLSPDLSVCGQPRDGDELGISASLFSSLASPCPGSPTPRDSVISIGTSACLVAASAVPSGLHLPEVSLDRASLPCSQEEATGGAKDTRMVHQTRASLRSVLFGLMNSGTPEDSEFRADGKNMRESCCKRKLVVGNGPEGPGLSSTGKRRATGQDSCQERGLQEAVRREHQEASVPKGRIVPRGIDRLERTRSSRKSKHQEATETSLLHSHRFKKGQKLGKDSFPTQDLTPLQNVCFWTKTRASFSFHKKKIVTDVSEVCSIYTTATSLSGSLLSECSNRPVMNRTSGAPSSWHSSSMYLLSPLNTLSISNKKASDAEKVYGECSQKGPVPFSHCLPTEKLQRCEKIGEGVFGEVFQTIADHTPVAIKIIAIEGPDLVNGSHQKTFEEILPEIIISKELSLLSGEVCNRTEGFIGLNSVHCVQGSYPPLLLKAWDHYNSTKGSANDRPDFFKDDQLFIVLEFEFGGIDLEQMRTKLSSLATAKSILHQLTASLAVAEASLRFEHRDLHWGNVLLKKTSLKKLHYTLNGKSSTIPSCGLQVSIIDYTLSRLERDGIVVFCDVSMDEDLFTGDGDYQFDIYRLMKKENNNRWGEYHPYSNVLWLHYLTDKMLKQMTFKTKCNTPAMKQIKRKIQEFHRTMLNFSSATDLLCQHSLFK
# DYRK2(h) = molecular target: T2, DYRK2(h) (Homo sapiens, UniProt Q92630)
# T2 construct: purchased Eurofins (KinaseProfiler)
# T2 sequence (Q92630 1-601): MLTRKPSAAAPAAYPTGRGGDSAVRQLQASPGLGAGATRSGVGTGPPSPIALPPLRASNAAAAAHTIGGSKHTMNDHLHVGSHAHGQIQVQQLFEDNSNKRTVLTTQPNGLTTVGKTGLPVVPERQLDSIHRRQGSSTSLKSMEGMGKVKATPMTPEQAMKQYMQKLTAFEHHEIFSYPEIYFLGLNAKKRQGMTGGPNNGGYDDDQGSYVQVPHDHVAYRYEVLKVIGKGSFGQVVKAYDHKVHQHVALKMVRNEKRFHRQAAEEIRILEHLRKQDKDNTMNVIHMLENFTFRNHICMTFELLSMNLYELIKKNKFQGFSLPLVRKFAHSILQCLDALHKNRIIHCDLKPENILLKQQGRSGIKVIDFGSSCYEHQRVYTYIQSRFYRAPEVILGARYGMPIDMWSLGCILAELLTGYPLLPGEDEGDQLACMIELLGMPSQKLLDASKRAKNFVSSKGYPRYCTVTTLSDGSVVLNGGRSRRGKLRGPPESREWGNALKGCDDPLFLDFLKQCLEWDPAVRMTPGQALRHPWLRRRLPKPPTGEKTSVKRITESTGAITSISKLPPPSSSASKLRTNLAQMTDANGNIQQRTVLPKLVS
# PKD3(h) = molecular target: T3, PKD3(h) (Homo sapiens, UniProt O94806)
# T3 construct: purchased Eurofins (KinaseProfiler)
# T3 sequence (O94806 1-890): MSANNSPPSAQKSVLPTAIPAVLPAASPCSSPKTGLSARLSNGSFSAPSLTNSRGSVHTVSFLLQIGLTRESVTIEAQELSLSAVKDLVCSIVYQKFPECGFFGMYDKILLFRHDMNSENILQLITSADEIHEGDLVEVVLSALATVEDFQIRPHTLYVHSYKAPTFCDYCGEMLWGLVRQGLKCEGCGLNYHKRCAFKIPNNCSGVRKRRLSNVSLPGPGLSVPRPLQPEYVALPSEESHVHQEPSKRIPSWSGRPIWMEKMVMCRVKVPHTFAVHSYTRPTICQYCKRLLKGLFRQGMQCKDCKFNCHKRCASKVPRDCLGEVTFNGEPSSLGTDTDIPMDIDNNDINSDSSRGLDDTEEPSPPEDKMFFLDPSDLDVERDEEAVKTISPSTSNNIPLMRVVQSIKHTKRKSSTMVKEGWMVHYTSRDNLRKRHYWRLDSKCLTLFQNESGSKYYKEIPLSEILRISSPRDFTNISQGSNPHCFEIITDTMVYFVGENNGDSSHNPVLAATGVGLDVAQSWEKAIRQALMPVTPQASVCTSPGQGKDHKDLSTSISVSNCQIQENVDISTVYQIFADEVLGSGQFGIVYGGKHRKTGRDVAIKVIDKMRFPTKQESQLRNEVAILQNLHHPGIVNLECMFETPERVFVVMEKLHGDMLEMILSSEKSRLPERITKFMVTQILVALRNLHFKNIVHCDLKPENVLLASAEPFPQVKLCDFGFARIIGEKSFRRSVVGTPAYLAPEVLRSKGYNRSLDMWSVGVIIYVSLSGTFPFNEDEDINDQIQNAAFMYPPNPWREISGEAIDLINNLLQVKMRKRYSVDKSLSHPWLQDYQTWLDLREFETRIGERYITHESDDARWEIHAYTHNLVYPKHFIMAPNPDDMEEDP
# [1] = molecular target: T4, PI3 Kinase (p110α/p85α)(h) (Homo sapiens, UniProt P42336)
# T4 construct: purchased Eurofins (KinaseProfiler)
# T4 sequence (P42336 whole entry): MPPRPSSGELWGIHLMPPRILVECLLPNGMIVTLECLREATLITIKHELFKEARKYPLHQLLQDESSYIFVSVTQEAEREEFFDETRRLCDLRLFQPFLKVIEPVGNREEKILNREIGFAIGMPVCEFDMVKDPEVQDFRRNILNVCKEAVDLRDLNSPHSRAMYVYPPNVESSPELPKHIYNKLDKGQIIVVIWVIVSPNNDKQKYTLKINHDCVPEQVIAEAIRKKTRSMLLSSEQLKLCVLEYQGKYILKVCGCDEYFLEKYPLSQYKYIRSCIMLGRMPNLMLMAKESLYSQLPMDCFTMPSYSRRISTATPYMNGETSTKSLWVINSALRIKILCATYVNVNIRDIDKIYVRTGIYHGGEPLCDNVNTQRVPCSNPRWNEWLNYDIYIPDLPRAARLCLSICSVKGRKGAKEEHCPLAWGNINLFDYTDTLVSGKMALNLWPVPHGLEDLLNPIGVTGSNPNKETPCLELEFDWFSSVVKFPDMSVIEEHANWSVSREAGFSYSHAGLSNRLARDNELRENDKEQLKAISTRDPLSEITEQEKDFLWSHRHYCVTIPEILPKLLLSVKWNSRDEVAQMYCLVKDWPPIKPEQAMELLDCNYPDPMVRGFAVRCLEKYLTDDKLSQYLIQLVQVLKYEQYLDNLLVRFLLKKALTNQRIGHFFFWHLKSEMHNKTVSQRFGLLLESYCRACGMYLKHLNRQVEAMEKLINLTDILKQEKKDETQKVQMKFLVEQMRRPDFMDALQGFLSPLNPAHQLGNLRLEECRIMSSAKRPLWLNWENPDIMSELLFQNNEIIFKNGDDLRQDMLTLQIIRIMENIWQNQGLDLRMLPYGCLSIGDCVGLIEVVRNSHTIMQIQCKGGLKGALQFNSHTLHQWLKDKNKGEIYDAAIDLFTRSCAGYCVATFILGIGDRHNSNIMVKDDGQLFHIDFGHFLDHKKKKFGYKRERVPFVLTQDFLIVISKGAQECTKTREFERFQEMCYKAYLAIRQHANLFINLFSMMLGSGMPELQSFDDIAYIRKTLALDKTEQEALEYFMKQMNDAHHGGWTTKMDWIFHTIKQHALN
# T4 sequence (P27986 whole entry partner): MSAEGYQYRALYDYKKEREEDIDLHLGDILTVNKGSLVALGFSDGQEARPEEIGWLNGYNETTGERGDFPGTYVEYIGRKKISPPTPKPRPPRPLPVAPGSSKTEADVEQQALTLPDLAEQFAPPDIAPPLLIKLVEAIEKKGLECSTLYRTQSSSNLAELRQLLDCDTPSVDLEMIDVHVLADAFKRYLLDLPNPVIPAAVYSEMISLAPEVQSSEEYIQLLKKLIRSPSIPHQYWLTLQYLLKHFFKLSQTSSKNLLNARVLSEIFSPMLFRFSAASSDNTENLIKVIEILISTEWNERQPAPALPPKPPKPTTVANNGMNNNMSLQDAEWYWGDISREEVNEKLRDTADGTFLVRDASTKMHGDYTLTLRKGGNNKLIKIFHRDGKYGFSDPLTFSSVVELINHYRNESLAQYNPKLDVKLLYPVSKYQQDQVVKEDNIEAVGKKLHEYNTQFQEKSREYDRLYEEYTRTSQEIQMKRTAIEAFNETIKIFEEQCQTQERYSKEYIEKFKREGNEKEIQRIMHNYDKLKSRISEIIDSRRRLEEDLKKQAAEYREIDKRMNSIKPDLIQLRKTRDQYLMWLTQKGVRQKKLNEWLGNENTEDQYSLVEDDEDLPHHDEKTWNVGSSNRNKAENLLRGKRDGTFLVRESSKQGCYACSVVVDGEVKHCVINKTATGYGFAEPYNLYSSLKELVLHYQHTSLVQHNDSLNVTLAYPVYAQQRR
# CaMKIδ(h) = molecular target: T5, CaMKIδ(h) (Homo sapiens, UniProt Q8IU85)
# T5 construct: purchased Eurofins (KinaseProfiler)
# T5 sequence (Q8IU85 whole entry): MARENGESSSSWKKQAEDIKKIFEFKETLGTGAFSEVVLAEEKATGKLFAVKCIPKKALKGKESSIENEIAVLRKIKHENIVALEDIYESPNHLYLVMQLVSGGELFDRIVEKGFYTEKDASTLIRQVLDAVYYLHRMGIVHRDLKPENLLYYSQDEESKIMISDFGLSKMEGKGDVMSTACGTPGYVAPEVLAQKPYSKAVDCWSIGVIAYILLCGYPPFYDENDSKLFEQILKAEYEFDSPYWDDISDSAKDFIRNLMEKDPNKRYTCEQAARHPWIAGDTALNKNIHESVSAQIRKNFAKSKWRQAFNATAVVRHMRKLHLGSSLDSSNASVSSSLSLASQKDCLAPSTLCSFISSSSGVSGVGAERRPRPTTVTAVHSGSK
compound,measurement,setting,value
COc1cc(OC)c(Cl)c(-c2ccc3c(NC(=O)c4ccc(N5CCNC(C)(C)C5)cc4)n[nH]c3n2)c1Cl [3D185],inhibition at 0.01 µM,Haspin(h); 10 nM,-15%
same,inhibition at 0.1 µM,Haspin(h); 100 nM,-6%
same,inhibition at 1 µM,Haspin(h); 1000 nM,4%
same,inhibition at 0.01 µM,DYRK2(h); 10 nM,-1%
same,inhibition at 0.1 µM,DYRK2(h); 100 nM,-1%
same,inhibition at 1 µM,DYRK2(h); 1000 nM,12%
same,inhibition at 0.01 µM,PKD3(h); 10 nM,-3%
same,inhibition at 0.1 µM,PKD3(h); 100 nM,-2%
same,inhibition at 1 µM,PKD3(h); 1000 nM,11%
same,inhibition at 0.01 µM,[1]; 10 nM,-1%
same,inhibition at 0.1 µM,[1]; 100 nM,1%
same,inhibition at 1 µM,[1]; 1000 nM,2%
same,inhibition at 0.01 µM,CaMKIδ(h); 10 nM,0%
same,inhibition at 0.1 µM,CaMKIδ(h); 100 nM,23%
same,inhibition at 1 µM,CaMKIδ(h); 1000 nM,76%
